Active and inactive are the calls of the source. The calls are words filed in the database; no cut-off is given here.
Key:
[1] = target: T1, Prostaglandin G/H synthase 2 (Homo sapiens) (UniProt P35354); assay: Inhibition of cyclooxygenase-2 in Homo sapiens (human) whole blood assessed as LPS-induced PGE2 production at 10 uM incubated 15 min prior to LPS challenge measured after 24 hr by enzyme immunoassay
T1 sequence (whole entry): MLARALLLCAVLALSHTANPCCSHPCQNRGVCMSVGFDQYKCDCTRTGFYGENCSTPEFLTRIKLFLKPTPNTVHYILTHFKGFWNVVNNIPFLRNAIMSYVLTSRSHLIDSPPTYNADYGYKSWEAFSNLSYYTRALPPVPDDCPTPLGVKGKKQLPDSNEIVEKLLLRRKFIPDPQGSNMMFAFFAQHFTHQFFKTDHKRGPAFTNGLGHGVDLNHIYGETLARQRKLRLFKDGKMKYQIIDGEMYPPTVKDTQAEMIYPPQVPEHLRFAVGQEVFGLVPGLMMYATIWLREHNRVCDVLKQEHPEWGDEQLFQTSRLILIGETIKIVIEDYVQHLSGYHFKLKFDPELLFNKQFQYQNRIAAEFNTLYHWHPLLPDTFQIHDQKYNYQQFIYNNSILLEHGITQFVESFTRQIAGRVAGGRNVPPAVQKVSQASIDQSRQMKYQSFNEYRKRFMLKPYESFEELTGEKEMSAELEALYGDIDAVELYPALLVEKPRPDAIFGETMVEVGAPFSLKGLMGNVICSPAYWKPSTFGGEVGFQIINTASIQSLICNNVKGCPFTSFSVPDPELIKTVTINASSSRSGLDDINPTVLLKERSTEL

[2] = target: T1, Prostaglandin G/H synthase 2 (Homo sapiens); assay: Inhibition of cyclooxygenase-2 in Homo sapiens (human) whole blood assessed as LPS-induced PGE2 production at 100 uM incubated 15 min prior to LPS challenge measured after 24 hr by enzyme immunoassay
[3] = target: T2, Prostaglandin G/H synthase 1 (Homo sapiens, UniProt P23219); assay: Inhibition of cyclooxygenase-1 in Homo sapiens (human) whole blood assessed as thromboxane B2 production at 100 uM after 1 hr by enzyme immunoassay
T2 sequence (P23219 whole entry): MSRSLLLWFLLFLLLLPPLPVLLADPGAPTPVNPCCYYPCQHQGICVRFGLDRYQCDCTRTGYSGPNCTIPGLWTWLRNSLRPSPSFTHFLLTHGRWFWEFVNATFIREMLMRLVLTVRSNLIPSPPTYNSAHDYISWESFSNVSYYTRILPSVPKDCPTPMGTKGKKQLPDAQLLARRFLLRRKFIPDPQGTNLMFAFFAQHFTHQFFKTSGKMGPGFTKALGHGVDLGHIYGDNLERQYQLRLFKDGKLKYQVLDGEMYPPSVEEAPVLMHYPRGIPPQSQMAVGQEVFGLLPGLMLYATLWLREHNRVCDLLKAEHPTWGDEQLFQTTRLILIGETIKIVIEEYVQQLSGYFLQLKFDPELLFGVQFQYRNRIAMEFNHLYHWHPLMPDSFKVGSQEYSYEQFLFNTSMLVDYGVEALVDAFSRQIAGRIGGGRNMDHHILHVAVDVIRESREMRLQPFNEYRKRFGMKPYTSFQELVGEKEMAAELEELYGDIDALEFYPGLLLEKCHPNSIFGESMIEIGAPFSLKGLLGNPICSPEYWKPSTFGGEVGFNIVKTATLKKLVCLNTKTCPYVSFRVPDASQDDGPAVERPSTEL

[4] = target: T2, Prostaglandin G/H synthase 1; assay: Inhibition of cyclooxygenase-1 in Homo sapiens (human) whole blood assessed as thromboxane B2 production at 10 uM after 1 hr by enzyme immunoassay
[5] = target: T3, Prostaglandin G/H synthase 2 (Homo sapiens, UniProt P35354); assay: Inhibition of Homo sapiens (human) cyclooxygenase-2
T3 sequence (P35354 whole entry): T1 sequence (whole entry)

[6] = target: T2, Prostaglandin G/H synthase 1; assay: Inhibition of COX-1 (unknown origin)

SMILES	inhibition [1]	inhibition [2]	inhibition [3]	inhibition [4]	IC50 [5] [µM]	IC50 [6] [µM]
Cc1ccc(-c2cc(N)cc(-c3ccccc3)c2)cc1	49%	95%	96%	46%		
Cc1ccc(-c2cc(N)cc(-c3ccc(C)cc3)c2)cc1	57%	86%	87%	27%		
COc1ccc(-c2cc(N)cc(-c3ccccc3)c2)cc1	inactive	78%	92%	inactive		
CSc1ccc(-c2cc(N)cc(-c3ccccc3)c2)cc1	inactive	inactive	92%	29%		
CCOc1ccc(-c2cc(N)cc(-c3ccccc3)c2)cc1	inactive	inactive	88%	20%		
CS(=O)(=O)c1ccc(-c2cc(N)cc(-c3ccccc3)c2)cc1	inactive	inactive	85%	23%		
CCOc1ccc(-c2cc(N)cc(-c3ccc(OCC)cc3)c2)cc1	inactive	inactive	inactive	inactive		
Nc1cc(-c2ccc(Cl)cc2)cc(-c2ccc(Cl)cc2)c1	76%	99%	93%	19%		
Cc1c(CC(=O)O)cc(-c2ccccc2)cc1-c1ccccc1					120	17
Nc1cc(-c2ccccc2)cc(-c2ccc(Cl)cc2)c1	85%	98%	97%	63%		
Nc1cc(-c2ccccc2)cc(-c2ccccc2)c1	68%	92%	98%	56%		
